Measured values from patent publication US20040175448A1, “Pharmaceutical compositions” (Mars, Incorporated, priority 1994, published 2004).

Test: Rancimat oxidative stability test of peanut oil
Details: Rancimat 100° C., 20 cc/min air, average of duplicate
From the text: The procedures described in Examples 1, 2 and 3 were used to prepare cocoa extracts which were manipulated further to produce two fractions from gel permeation chromatography. These two fractions are actually combined fractions A through C, and D and E (See FIG. 1) whose antioxidant properties were compared against the synthetic antioxidants BHA and BHT.
Peanut Oil was pressed from unroasted peanuts after the skins were removed. Each test compound was spiked into the oil at two levels about 100 ppm and about 20 ppm, with the actual levels given in Table 7.50 μL of methanol solubilized antioxidant was added to each sample to aid in dispersion of the antioxidant. A control sample was prepared with 50 μL of methanol containing no antioxidant.
The samples were evaluated in duplicate, for oxidative stability using the Rancimat stability test at 100° C. and 20 cc/min of air. Experimental parameters were chosen to match those used with the Active Oxygen Method (AOM) or Swift Stability Test (Van Oosten et al., 1981). Results are reported in Table 8 as hours required to reach a peroxide level of 100 meq.

[1] = 20 ppm (actual 20-24 ppm, Table 7)
[2] = 100 ppm (actual 100-120 ppm, Table 7)

SMILES	Oxidative stability of peanut oil: hours required to reach a peroxide level of 100 meq [1]	Oxidative stability of peanut oil: hours required to reach a peroxide level of 100 meq [2]
COc1ccc(O)c(C(C)(C)C)c1 [BHA, Butylated Hydroxyanisole]	13.5 ± 2.1 h	14.0 ± 1.4 h
Cc1cc(C(C)(C)C)c(O)c(C(C)(C)C)c1 [BHT, Butylated Hydroxytoluene]	16.5 ± 2.1 h	12.5 ± 2.1 h
